Experimental data published in patent EP3359195B1 (AB Science, priority 2015, dated 2017).
Like-named read-outs stand apart in the source and are kept apart here.

Experiments:
[1] = test system: mastocytosis; conditions: cited from earlier work; for major response: more than 50% improvement in symptoms and signs; for overall response rate: sum of CR, MR and PR
[2] = test system: Ba/F3 cells expressing the D816V c-Kit mutation; conditions: read-out: IC50, proliferation; cited from earlier work
[3] = test system: Ba/F3 cells expressing human or mouse wild-type c-Kit; conditions: read-out: IC50, stem cell factor-induced proliferation and c-Kit tyrosine phosphorylation; cited from earlier work
[4] = test system: severe systemic mastocytosis; experiment: post-hoc analysis of pooled phase 2 studies AB06013 and AB04010, cohort simulating severe systemic mastocytosis; assay type: in vivo, human; conditions: for Cumulative response rate (≥75 %) from W8 to W24, Hamilton or FIS / Cumulative response rate (≥75 %) from W8 to W24, Flushes or Pruritus: 2-handicap response rate; for Cumulative response rate (≥75 %) from W8 to W24, Hamilton or FIS: at least one handicap from [Hamilton or FIS]; for Cumulative response rate (≥75 %) from W8 to W24, Flushes or Pruritus: at least one handicap from [flushes or pruritus]
[5] = entire evaluable study population (N=80)
[6] = missing data considered as failure (observed cases after W12)

For `Cc1ccc(NC(=O)c2ccc(CN3CCN(C)CC3)cc2)cc1Nc1nccc(-c2cccnc2)n1` [imatinib mesilate], the major response [1, 5] is listed as 9%, the overall response rate [1, 5] is listed as 18% and the overall response rate ([1]; patients with ISM (N=22)) is listed as 14%.
For `NC(=O)NO` [hydroxyurea], the major response [1, 5] is given as 0%, the overall response rate [1, 5] is given as 19% and the overall response rate ([1]; patients with ISM (N=22)) is given as 0%.
For `Cc1ccc(NC(=O)c2ccc(CN3CCN(C)CC3)cc2)cc1Nc1nc(-c2cccnc2)cs1` [masitinib, 4-(4-methylpiperazin-1-ylmethyl)-N-[4-methyl-3-(4-pyridin-3ylthiazol-2-ylamino)phenyl]benzamide], the IC50 [2] is listed as 5 ± 2 µM, the IC50 [3] is listed as 0.15 ± 0.08 µM and the “Cumulative response rate (≥75 %) from W8 to W24, Hamilton or FIS” value [4] is listed as roughly 10%. The “Cumulative response rate (≥75 %) from W8 to W24, Hamilton or FIS” value ([4]; listed as Masitinib) was 10.3%, the “Cumulative response rate (≥75 %) from W8 to W24, Flushes or Pruritus” value [4] was “approximately 40%” and the “Cumulative response rate (≥75 %) from W8 to W24, Flushes or Pruritus” value ([4]; listed as Masitinib) was 38.8%. The “Overall response ≥ 75%” value ([4]; Week 12, at least one severe handicap among pruritus, flushes, fatigue or depression at baseline, missing data considered as failure, listed as Masitinib) was 25.0%, the “Overall response ≥ 75%” value ([4]; Week 12, patients with both pruritus score ≥9 and flushes per week ≥8 at baseline (4 patients, 8 handicaps)) was 1/8 (12.5%) and the “Overall response ≥ 75%” value ([4]; Week 24, at least one severe handicap among pruritus, flushes, fatigue or depression at baseline, missing data considered as failure) was 23.5%. For the same compound, the “Overall response ≥ 75%” value ([4]; Week 24, at least one severe handicap among pruritus, flushes, fatigue or depression at baseline, missing data considered as failure, listed as Masitinib) was 23.5%, the “Overall response ≥ 75%” value ([4]; Week 24, patients with both pruritus score ≥9 and flushes per week ≥8 at baseline (4 patients, 8 handicaps)) was 50% and the “Cumulative response rate (≥75 %) from W8 to W24, Overall Response” value ([4]; at least one handicap among pruritus, flushes, fatigue or depression, W8, W12, W24) was 26.1%. The “Cumulative response rate (≥75 %) from W8 to W24, FIS only” value [4, 6] was 8.0%, the “Cumulative response rate (≥75 %) from W8 to W24, Flushes only” value [4, 6] was 52.8% and the “Cumulative response rate (≥75 %) from W8 to W24, Hamilton only” value [4, 6] was 16.7%. The “Cumulative response rate (≥75 %) from W8 to W24, Micturition frequency (pollakiuria) only” value [4, 6] was 1.8%, the “Cumulative response rate (≥75 %) from W8 to W24, Pruritus only” value [4, 6] was 28.6% and the “Cumulative response rate (≥75 %) from W8 to W24, Stool frequency (diarrhea) only” value [4, 6] was 18.4%.
For `Nc1nc(Cl)nc2c1ncn2[C@H]1C[C@H](O)[C@@H](CO)O1` [Cladribine], the major response [1, 5] is given as 37%, the overall response rate [1, 5] is given as 55% and the overall response rate ([1]; patients with ISM (N=22)) is given as 56%.
